This is an account of results in patent publication US4108724A, “Method for preparing antibiotic P-2563 using Pseudomonas fluorescens” (Takeda Chemical Industries, Ltd., priority 1975, dated 1978).

What is called MIC is the least concentration at which growth counts as inhibited. A low value points to greater potency. For orientation: LD50 means the dose expected to kill half of the subjects tested.

Series [1] in a line: Toxicity (general statement).
The test system of series [2] is gram-positive and gram-negative bacteria. The experiment in a line: Antimicrobial spectrum (general statement). It counts as cell-based. The protocol:
(§1) Procedure I : Cultivated on heart infusion agar medium (Difco) at 37° C for 24 hours.
(§2) Procedure II : Cultivated on heart infusion agar medium with 1 % added glycerin at 37° C for 48 hours.
(§3) Procedure III : Cultivated on glucose bouillon agar medium at 28° C for 96 hours.

A further series is described as follows: Stability against pH. It is filed as physicochemical. To be noted: outside the stable pH range.
A further series is described as follows: Solubilities. It counts as physicochemical. The following applies: for Solubilities: insoluble: insoluble solvents; for Solubilities: readily soluble: readily soluble solvents; for Solubilities: sparingly soluble: sparingly soluble solvents.
Another series deals with Escherichia coli. The experiment in a line: Antimicrobial spectrum, minimal inhibitory concentration (Procedure I). It counts as cell-based. To be noted: Procedure I: heart infusion agar, 37° C, 24 hours. The protocol:
(§4) In the table, procedures I to III mean the following:
as §1

The next series relates to Klebsiella pneumoniae. The description is as above. It counts as cell-based. The following applies: Procedure I: heart infusion agar, 37° C, 24 hours. The protocol:
as §4, §1

In a further series the test system is Proteus vulgaris. The description is as above. The following applies: Procedure I: heart infusion agar, 37° C, 24 hours. It counts as cell-based. The protocol:
as §4, §1

The test system of a further series is Proteus mirabilis. Described as above. It counts as cell-based. The following applies: Procedure I: heart infusion agar, 37° C, 24 hours. The protocol: as §4, §1
For the next series, the system named is Staphylococcus aureus. The description is as above. The following applies: Procedure I: heart infusion agar, 37° C, 24 hours. It is filed as cell-based. The protocol:
as §4, §1

For a further series, the system named is Bacillus subtilis. The series is described as above. It counts as cell-based. To be noted: Procedure I: heart infusion agar, 37° C, 24 hours. The protocol:
as §4, §1

For another series, the system named is Pseudomonas aeruginosa. The description is as above. It counts as cell-based. To be noted: Procedure I: heart infusion agar, 37° C, 24 hours. The protocol: as §4, §1
The subject of a further series is Candida albicans. Put plainly: Antimicrobial spectrum, minimal inhibitory concentration (Procedure III). It is filed as cell-based. The following applies: Procedure III: glucose bouillon agar, 28° C, 96 hours. As to the method: as §4, §3
A further series deals with Microsporum gypseum. The series is described as above. It counts as cell-based. To be noted: Nannizzia gypsea; Procedure III: glucose bouillon agar, 28° C, 96 hours. The protocol: as §4, §3
Series [3] relates to Trichophyton mentagrophytes. The series is described as above. It counts as cell-based. To be noted: Procedure III: glucose bouillon agar, 28° C, 96 hours. As to the method: as §4, §3
Another series relates to Cryptococcus neoformans. Described as above. The following applies: Procedure III: glucose bouillon agar, 28° C, 96 hours. It is filed as cell-based. The protocol: as §4, §3
In a further series the test system is Asperigillus fumigatus. Described as above. To be noted: Procedure III: glucose bouillon agar, 28° C, 96 hours. It counts as cell-based. The protocol: as §4, §3
The subject of series [4] is bacteria of the genus Pseudomonas. The experiment in a line: Antimicrobial spectrum (general statement). It counts as cell-based. As to the method: as §1
Series [5] is described as follows: Acute toxicity in mice (intravenous). The following applies: for LD50: mouse, in vivo. It is filed as in vivo.
Another series concerns Mycobacterium species. Put plainly: Antimicrobial spectrum, minimal inhibitory concentration (Procedure II). It is filed as cell-based. To be noted: Procedure II: heart infusion agar with 1 % added glycerin, 37° C, 48 hours. The protocol: as §4, §2

≈ marks a conversion by molar mass, not a printed value. Entries after “also recorded” stand apart in the source; their conditions may differ. Where a name gives a salt, the structure may show the parent alone. Bounds are passed on as bounds.

As to `NCC(O)C(OC1O[C@H](CO)[C@@H](N)[C@H](O)[C@H]1O)C(N)C(O)CO` (stereo partly drawn) [P-2563 (III)], the toxicity result in series [1] is recorded as “low toxicity”. Besides, in [2], the antimicrobial spectrum result is “broad antimicrobial spectrum, especially against gram-positive and gram-neg ative bacteria”. The “Stability: decomposition” value in the series “Stability against pH” was “decomposes gradually under strongly acidic (below pH 3) and strongly basic (above pH 13) conditions”. In addition, in “Solubilities”, the “Solubilities: insoluble” value is “insoluble in chloroform, ethylacetate, ether, n-hexane and petroleum ether”; the “Solubilities: readily soluble” value is “Readily soluble in water and methanol”; the “Solubilities: sparingly soluble” value is “sparingly soluble in ethanol, n-propanol, butanol and acetone”; the “solubility in water (general statement)” value is listed as “water-soluble”.
For the compound `CC(=O)N[C@H]1[C@H](O)[C@@H](O)C(OC(C(O)CN)C(N)C(O)CO)O[C@@H]1CO` (stereo partly drawn) [P-2563 (II)], the MIC with Escherichia coli is 50 µg/mL (≈ 130 µM); with Klebsiella pneumoniae, 50 µg/mL (≈ 130 µM); with Proteus vulgaris, 100 µg/mL (≈ 261 µM); with Proteus mirabilis it was 200 µg/mL (≈ 522 µM); with Staphylococcus aureus, 200 µg/mL (≈ 522 µM); against Bacillus subtilis it was 70 µg/mL (≈ 183 µM). The MIC against Pseudomonas aeruginosa was 300 µg/mL (≈ 782 µM); against Candida albicans, over 500 µg/mL; in the series with Microsporum gypseum it was over 500 µg/mL; in [3] it was over 500 µg/mL; against Cryptococcus neoformans, over 500 µg/mL; in the series with Asperigillus fumigatus, over 500 µg/mL. This compound registered an MIC in the series with Mycobacterium species of 200 µg/mL (≈ 522 µM). In addition, in series [4], the “inhibitory to bacteria of the genus Pseudomonas” value was “particularly to bacteria of the genus Pseudomonas”. The toxicity result in [1] was “low toxicity”; in series [5] it was “extremely low in toxicity”. Also, the antimicrobial spectrum entry in series [2] was “broad antimicrobial spectrum, especially against gram-positive and gram-neg ative bacteria; also recorded: inhibitory to gram-positive and gram-negative bacteria”. The “Stability: decomposition” value in “Stability against pH” is “decmposes gradually with a loss of activity under strongly basic (above pH 8) and strongly acidic (below pH 3) conditions”. In addition, in series [5], the LD50 was over 400 mg/kg. In addition, the “Solubilities: insoluble” value in “Solubilities” is “insoluble in chloroform, ethyl acetate, ether, n-hexane and petroleum ether”. Further, the “Solubilities: readily soluble” value in the series “Solubilities” was “Readily soluble in water and methanol”. Besides, the “Solubilities: sparingly soluble” value in the series “Solubilities” was “sparingly soluble in ethanol, n-propanol, butanol and acetone”. In addition, the “solubility in water (general statement)” value in “Solubilities” is on record as “water-soluble”.
Regarding `CCC(=O)N[C@H]1[C@H](O)[C@@H](O)C(OC(C(O)CN)C(N)C(O)CO)O[C@@H]1CO` (stereo partly drawn) [P-2563 (I)], the MIC was found to be 30 µg/mL (≈ 75.5 µM) with Escherichia coli; 12.5 µg/mL (≈ 31.5 µM) with Klebsiella pneumoniae; 30 µg/mL (≈ 75.5 µM) in the series on Proteus vulgaris; 200 µg/mL (≈ 503 µM) in the series with Proteus mirabilis; 50 µg/mL (≈ 126 µM) with Staphylococcus aureus; 30 µg/mL (≈ 75.5 µM) in the series on Bacillus subtilis. Moreover, the minimal inhibitory concentration (MIC) against Pseudomonas aeruginosa was 50 µg/mL (≈ 126 µM); against Candida albicans, over 500 µg/mL; in the series with Microsporum gypseum, over 500 µg/mL; in [3], over 500 µg/mL; in the series with Cryptococcus neoformans it was over 500 µg/mL; against Asperigillus fumigatus it was over 500 µg/mL. This compound displayed an MIC with Mycobacterium species of 200 µg/mL (≈ 503 µM). Besides, in [4], the “inhibitory to bacteria of the genus Pseudomonas” value is “particularly to bacteria of the genus Pseudomonas”. The toxicity result is reported as “low toxicity” in [1] and “extremely low in toxicity” in [5]. Besides, in [2], the antimicrobial spectrum result was “broad antimicrobial spectrum, especially against gram-positive and gram-neg ative bacteria; also recorded: inhibitory to gram-positive and gram-negative bacteria”. The “Stability: decomposition” value in “Stability against pH” is “decomposes gradually with a loss of activity under strongly basic (above pH 8) and strongly acidic (below pH 3) conditions”. Moreover, the LD50 in [5] is over 400 mg/kg. Also, in the series “Solubilities”, the “Solubilities: insoluble” value was “insoluble in chloroform, ethyl acetate, ether, n-hexane and petroleum ether”. Moreover, the “Solubilities: readily soluble” value in the series “Solubilities” is “Readily soluble in water, methanol and ethanol”. Further, the “Solubilities: sparingly soluble” value in “Solubilities” was “sparingly soluble in n-propanol, butanol and acetone”. Also, in the series “Solubilities”, the “solubility in water (general statement)” value is “water-soluble”.
On to `CCC(=O)N[C@H]1[C@H](O)[C@@H](O)C(OC(C(O)CN)C(N)C(O)CO)O[C@@H]1CO` (stereo partly drawn) [P-2563 (I) monohydrochloric acid salt], for which the “Stability: decomposition” value in “Stability against pH” is “decomposes gradually with a loss of activity under strongly basic (above pH 8) and strongly acidic (below pH 3) conditions”. For the same compound, in the series “Solubilities”, the “Solubilities: insoluble” value is “insoluble in chloroform, ethyl acetate, ether, n-hexane and petroleum ether”; the “Solubilities: readily soluble” value is “Readily soluble in water and methanol”; the “Solubilities: sparingly soluble” value is “sparingly soluble in ethanol, n-propanol, butanol and acetone”.
